Data on 21 compounds can be found in US8546608B2, “Proteasome inhibitors and methods of using the same” (Cephalon, Inc., priority 2003, dated 2013).

Structures can show the parent of a compound that is named as a salt. Where two headings read alike, the source gives them in different places.

Test [1] has as its target T1, 20S Human Erythrocyte Proteasome (HEP) (Homo sapiens, UniProt P20618+P28074).
T1 construct: 20S Human Erythrocyte Proteasome (HEP), purchased from Immatics Biotechnologies Inc; purchased Immatics Biotechnologies Inc., Tübingen, Germany; host or cells: human erythrocytes (natural source)
Description: Chymotrypsin-like activity of 20S Human Erythrocyte Proteasome (HEP), IC50 determination. It counts as biochemical. The following applies: assay of Example C, inhibition of HEP. An outline of the steps: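 20S proteasome at 0.2 μg/mL (about 0.6 nM catalytic sites) in 20 mM Tris with 0.04% SDS, preincubated 15 min at 37° C with inhibitor before Suc-LLVY-AMC (100 μM final). AMC fluorescence read in the linear range; triplicates, IC50 from concentration series.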

Test [2] concerns the target T2, proteasome in Molt-4 cells (human leukemia) (Homo sapiens, UniProt P20618+P28074).
T2 sequence (P28074 60-263): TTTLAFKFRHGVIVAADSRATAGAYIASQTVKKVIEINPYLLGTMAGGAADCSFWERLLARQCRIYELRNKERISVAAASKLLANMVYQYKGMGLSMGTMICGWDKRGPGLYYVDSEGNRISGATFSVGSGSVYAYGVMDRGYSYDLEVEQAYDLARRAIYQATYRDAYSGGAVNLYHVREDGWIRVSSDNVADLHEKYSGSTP
T2 sequence (P20618 29-241): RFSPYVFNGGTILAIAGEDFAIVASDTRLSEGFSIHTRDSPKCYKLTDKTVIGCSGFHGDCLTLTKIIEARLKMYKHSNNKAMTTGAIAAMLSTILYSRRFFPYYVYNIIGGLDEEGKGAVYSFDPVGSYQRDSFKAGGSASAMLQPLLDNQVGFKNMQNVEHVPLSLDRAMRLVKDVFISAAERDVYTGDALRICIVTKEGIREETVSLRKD
It counts as cell-based. A digest of the protocol:
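Intact Molt-4 cells (6×10^6 cells/mL) in HEPES-buffered saline were preincubated with inhibitor 15 min at 37 °C, then given cell-permeable MeOSuc-FLF-AFC at 25 μM final.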

The mark [3] stands for this setting: assay of Example E, inhibition of MOLT4; read-out: MOLT4 (EC50).

In general, IC50 refers to the concentration needed to halve the response being measured. A low value points to inhibition by little substance. The term EC50 denotes the midpoint of the concentration-response curve. As for `CC(C)C[C@H](NC(=O)[C@H](CCCNC(=N)N[N+](=O)[O-])NC(=O)Cc1ccccc1Cl)B1O[C@@H]2C[C@@H]3C[C@@H](C3(C)C)[C@]2(C)O1` [D.3.29, 2-(2-Chlorophenyl)acetamide,N-[(1S)-1-[[[(1R)-1-[(3aS,4S,6S,7aR)-hexahydro-3a,5,5-trimethyl-4,6-methano-1,3,2-benzodioxaborol-2-yl]-3-methylbutyl]amino]carbonyl]-4-[[imino(nitroamino)methyl]amino]butyl]], in test [1], the IC50 was below 10 nM. For the same compound, the EC50 in test [2] (setting [3]) was below 200 nM.
In the same order, the values of `CC(C)C[C@H](NC(=O)[C@@H](NC(=O)c1cnccn1)[C@@H](C)O)B1O[C@@H]2C[C@@H]3C[C@@H](C3(C)C)[C@]2(C)O1` [D.8.4, 2-Pyrazinecarbossamide, N-[(1S,2R)-1-[[[(1R)-1-[(3aS,4S, 6S,7aR)-hexahydro-3a,5,5-trimethyl-4,6-methano-1,3,2-benzodioxaborol-2-yl]-3-melthylbutyl]amino]carbonyl]-2-hydroxypropyl]] are below 100 nM and below 200 nM.
In turn, `CC(C)C[C@H](NC(=O)[C@H](CCCNC(=N)N[N+](=O)[O-])NC(=O)/C=C/c1ccccc1Br)B1O[C@@H]2C[C@@H]3C[C@@H](C3(C)C)[C@]2(C)O1` [D.3.34] gave an IC50 in test [1] below 10 nM. Moreover, the EC50 in test [2] (setting [3]) is below 200 nM.
The matching figures for `CCCCc1ccc(C(=O)N[C@H](C(=O)N[C@@H](CC(C)C)B2O[C@@H]3C[C@@H]4C[C@@H](C4(C)C)[C@]3(C)O2)[C@@H](C)O)cc1` [D.3.179, 4-butylbenzamide, N-[(1S,2R)-1-[[[(1R)-1-[(3aS,4S,6S,7aR)-hexahydro-3a,5,5-trimethyl-4,6-methano-1,3,2-benzodioxaborol-2-yl]-3-methylbutyl]amino]-carbonyl]-2-hydroxypropyl]-]: below 10 nM and below 200 nM.
The matching figures for `CCCCc1ccc(C(=O)N[C@@H](CNC(=O)Nc2ccccc2)C(=O)N[C@@H](CC(C)C)B2O[C@@H]3C[C@@H]4C[C@@H](C4(C)C)[C@]3(C)O2)cc1` [D.24.12, 4-Butylbenzamide, N-[(1S)-1-[[[(1R)-1-[(3aS,4S,6S,7aR)-hexahydro-3a,5,5-trimethyl-4,6-methano-1,3,2-benzodioxaborol-2-yl]-3-methylbutyl]amino]carbonyl]-2-(3-phenyl-ureido)ethyl]-]: below 10 nM and below 200 nM.
The matching figures for `CC(C)C[C@H](NC(=O)[C@@H](NC(=O)c1ccc2cc(Br)ccc2c1)[C@@H](C)O)B(O)O` [E.1.26, Boronic acid, [(1R)-1-[[(2S,3R)-3-hydroxy-2-[(6-Bromo-2-naphthoyl)amino]-1-oxobutyl]amino]-3-methylbutyl]]: below 10 nM and below 200 nM.
`CC(C)C[C@H](NC(=O)[C@H](CCCNC(=N)N[N+](=O)[O-])NC(=O)/C=C/c1ccccc1Br)B(O)O` [E.2.52, Boronic acid, [(1R)-1-[[(2S)-5-[[imino(nitroamino)methyl]amino]-2-[[trans-3-(2-bromophenyl)acryl]amino]-1-oxopentyl]amino]-3-methylbutyl]] displayed an IC50 in test [1] below 10 nM. For the same compound, the EC50 in test [2] (setting [3]) lay within 2000 to 10000 nM.
The matching figures for `CCCCCCCCC(=O)N[C@@H](CCCNC(=N)N[N+](=O)[O-])C(=O)N[C@@H](CC(C)C)B(O)O` [E.2.9, Boronic acid, [(1R)-1-[[(2S)-5-[[imino(nitroamino)methyl]amino]-2-[(nonanoyl)amino]-1-oxopentyl]amino]-3-methylbutyl]]: below 10 nM and 200 to 2000 nM.
The matching figures for `CC(C)C[C@H](NC(=O)[C@H](CCCNC(=N)N[N+](=O)[O-])NC(=O)CC12CC3CC(CC(C3)C1)C2)B(O)O` [E.2.34]: below 10 nM and 2000 to 10000 nM.
Turning to `CC(C)C[C@H](NC(=O)[C@H](CCCNC(=N)N[N+](=O)[O-])NC(=O)C1CC1)B(O)O` [D.7.30, Boronic acid, [(1R)-1-[[(2S)-5-[[imino(nitroamino)methyl]amino]-2-[(cyclopropanecarbonyl)amino]-1-oxopentyl]amino]-3-methylbutyl]], the IC50 in test [1] was below 100 nM. For the same compound, the EC50 in test [2] (setting [3]) was above 10000 nM.
The matching figures for `CC(C)C[C@H](NC(=O)[C@@H](NC(=O)c1ccc2ccccc2c1)[C@@H](C)O)B(O)O` [E.3.1, Boronic acid, [(1R)-1-[[(2S,3R)-3-hydroxy-2-[(2-naphthoyl)amino]-1-oxobutyl]amino]-3-methylbutyl]]: below 10 nM and below 200 nM.
The matching figures for `CCCCc1ccc(C(=O)N[C@@H](CNC(=O)NCCC)C(=O)N[C@@H](CC(C)C)B(O)O)cc1` [E.5.2, Boronic acid, [(1R)-1-[[(2S)-3-(propylureido)-2-[(4-butyl)-benzoylamino]-1-oxopropyl]amino]-3-methylbutyl]]: below 10 nM and below 200 nM.
The matching figures for `CC(C)C[C@H](NC(=O)[C@H](CCCNC(=N)N[N+](=O)[O-])NC(=O)c1cccc2ccccc12)B1O[C@@H]2C[C@@H]3C[C@@H](C3(C)C)[C@]2(C)O1` [D.3.2, Naphthalen-1-carboxamide,N-[(1S)-1-[[[(1R)-1-[(3aS,4S,6S,7aR)-hexahydro-3a,5,5-trimethyl-4,6-methano-1,3,2-benzodioxaborol-2-yl]-3-methylbutyl]amino]carbonyl]-4-[[imino(nitroamino)methyl]amino]butyl]]: below 10 nM and below 200 nM.
On to `CC(C)C[C@H](NC(=O)[C@H](CCCNC(=N)N[N+](=O)[O-])NC(=O)C1CCCCN1C(=O)OC(C)(C)C)B(O)O` (mixture of isomers) [E.2.81, Boronic acid, [(1R)-1-[[(2S)-5-[[imino(nitroamino)methyl]amino]-2-[[(2RS)-1-[(1,1-dimethylethoxy)carbonyl]piperidine-2-carbonyl]amino]-1-oxopentyl]amino]-3-methylbutyl]], for which, in test [1], the IC50 was below 100 nM. Also, the EC50 in test [2] (setting [3]) was 2000 to 10000 nM.
For `Cc1ccccc1C(=O)N[C@@H](CCCNC(=N)N[N+](=O)[O-])C(=O)N[C@@H](CC(C)C)B(O)O` [E.2.15, Boronic acid, [(1R)-1-[[(2S)-5-[[imino(nitroamino)methyl]amino]-2-[(2-methylbenzoyl)amino]-1-oxopentyl]amino]-3-methylbutyl]], the IC50 in test [1] was below 10 nM. Besides, the EC50 in test [2] (setting [3]) was above 10000 nM.
In test [1], `CC(C)C[C@H](NC(=O)[C@H](CCCNC(=N)N[N+](=O)[O-])NC(=O)CCCCCCCCCCCNC(=O)OC(C)(C)C)B1O[C@@H]2C[C@@H]3C[C@@H](C3(C)C)[C@]2(C)O1` [D.2.4, 12-[(1,1-dimethylethoxy)carbonylamino] dodecanamide,N-[(1S)-1-[[[(1R)-1-[(3aS,4S,6S,7aR)-hexahydro-3a,5,5-trimethyl-4,6-methano-1,3,2-benzodioxaborol-2-yl]-3-methylbutyl]amino]carbonyl]-4-[[imino(nitroamino)methyl]amino]butyl]-] showed an IC50 below 10 nM. In addition, the EC50 in test [2] (setting [3]) was below 200 nM.
Turning to `COCCOCCOCC(=O)N[C@@H](CCCNC(=N)N[N+](=O)[O-])C(=O)N[C@@H](CC(C)C)B1O[C@@H]2C[C@@H]3C[C@@H](C3(C)C)[C@]2(C)O1` [D.1.7], the IC50 in test [1] is below 100 nM. The EC50 in test [2] (setting [3]) was in the range of 2000 to 10000 nM.
Consider `CC(C)C[C@H](NC(=O)[C@@H](NC(=O)c1cccc(-c2cccnc2)c1)[C@@H](C)O)B(O)O` [E.3.9, Boronic acid, [(1R)-1-[[(2S,3R)-3-hydroxy-2-[(3-pyridin-3-yl-benzoyl)amino]-1-oxobutyl]amino]-3-methylbutyl], hydrochloride salt], for which the IC50 in test [1] was below 10 nM. In addition, the EC50 in test [2] (read-out: MOLT4 (EC50); assay of Example E, inhibition of MOLT4) was below 200 nM.
On to `CC(C)C[C@H](NC(=O)[C@H](CCCNC(=N)N[N+](=O)[O-])NC(=O)CCS(=O)(=O)c1ccccc1)B(O)O` [E.2.70, Boronic acid, [(1R)-1-[[(2S)-5-[[imino(nitroamino)methyl]amino]-2-[[3-(benzenesulfonyl)propanoyl]amino]-1-oxopentyl]amino]-3-methylbutyl]], for which, in test [1], the concentration for half-maximal inhibition (IC50) was below 10 nM. The EC50 in test [2] (setting [3]) was above 10000 nM.
The matching figures for `CC(C)C[C@H](NC(=O)[C@H](CCCNC(=N)N[N+](=O)[O-])NC(=O)c1ccc(C(C)(C)C)cc1)B(O)O` [E.2.8, Boronic acid, [(1R)-1-[[(2S)-5-[[imino(nitroamino)methyl]amino]-2-[(4-(1,1-dimethylethyl)benzoyl)amino]-1-oxopentyl]amino]-3-methylbutyl]]: below 10 nM and 2000 to 10000 nM.
In the same order, the values of `CCCCc1ccc(C(=O)N[C@H](C(=O)N[C@@H](CC(C)C)B2OC3(CCCCC3)C3(CCCCC3)O2)[C@@H](C)O)cc1` [F.2.1, 4-Butylbenzamide, N-[(1S,2R)-1-[[[(1R)-1-[13,15-dioxa-14-bora-dispiro[5.0.5.3]pentadec-14-yl]-3-methylbutyl]amino]carbonyl]-2-hydroxypropyl]-] are below 100 nM and 200 to 2000 nM.
